# Read-outs that look alike come from different tables or passages of the source. Where a SMILES comes first, the peptide text is derived from it.
# Experiments:
# [1] = test system: E. coli (NCTC 10418) biofilm; type: cell-based, Escherichia coli; details: for MBIC50 / MBIC90: NCTC 10418, 24 h
# Description: (§1) The anti-biofilm effects of all synthetic peptides were evaluated, which was described in our previous study. The organisms, including S. aureus (NCTC 10788), E. coli (NCTC 10418), MRSA (ATCC 12493), E. faecalis (NCTC 12697) and P. aeruginosa (ATCC 27853), were investigated in this study. Gram-positive bacteria were cultured in the TSB broth and Gram-negative bacteria were cultured in the LB broth. The anti-biofilm effects were determined based on the MBIC and MBEC of all the peptides. For the determination of MBIC, 5 × 10^5 CFU/mL bacterial cultures were incubated with the peptides concentrations (ranging from 1 µM to 512 µM) for 24 h. The sterilised medium and bacterial suspension without any treatment were used as the negative controls and positive controls, respectively. After incubation, wells were rinsed, fixed, stained, washed and dissolved with phosphate buffer saline (PBS), methanol (90%, v/v), crystal violet (0.1%, w/v), sterile deionised water and acetic acid (30%, v/v), respectively. The absorbance of dissolved stain was measured at a 595 nm using a Synergy HT plate reader (Biotech, Minneapolis, MN, USA).
# (§2) For the MBEC assay, the peptide concentrations were prepared as above. The bacteria were cultured in the 96 well plate for 24–48 h, which allowed the formation of mature biofilm in the plate. Then, the bacterial culture was removed from the plate. The biofilm was further washed to remove the planktonic bacteria using PBS. Then, the fresh broth that contained different peptide concentrations was added in the plate for incubation of 24 h at 37 °C. After incubation, the plate was stained by crystal violet as mentioned above. The definition of MBIC can be given when compared to the negative control group (≥90%, MBIC90; ≥50%, MBIC50). The definition of the MBEC can be given when compared to the negative control group (≥90%, MBEC90; ≥50%, MBEC50).
# [2] = test system: Galleria mellonella larvae; assay: Toxicity to uninfected Galleria mellonella larvae; type: in vivo; details: uninfected G. mellonella larvae injected with drug; n = 30 per group; vancomycin 20 mg/kg
# Description: The in vivo study of antimicrobial activity of the peptides was evaluated using the larvae of Galleria mellonella, which was described in the previous study with minor modifications. The larvae of Galleria mellonella (250 ± 25 mg; Livefood UK Ltd., Rooks Bridge, UK) were selected. The MRSA culture was prepared the same way as the antimicrobial activity assay. Then, MRSA cells were collected and washed, and further diluted to 10^8 CFU/mL in the saline. Ten µL of MRSA suspension was injected to the larvae and placed in a petri dish. After 2 h, the MRSA infected larvae were administrated with 10 µL of peptides (25 mg/kg, 50 mg/kg) by injection. Saline and vancomycin (20 mg/kg) (Sigma-Aldrich, UK) were used as the negative control and positive control, respectively. Each sample group contained 10 larvae, and the experiment was repeated three times (30 larvae for each group in total). The survival curves were achieved using Prism (Version 6.0; GraphPad Software Inc., San Diego, CA, USA) and the log-rank test was employed to analyze the significance between the different treatments and the controls. * (p < 0.05), ** (p < 0.01) and *** (p < 0.001) represent statistical significance.
# Figure A9 Larvae without any MRSA infection were injected with peptides and vancomycin respectively to access the cytotoxicity of the drugs to larvae bodies. […] Effect of treatment of G. mellonella larvae (n = 30 for each group) without any infection and only treated with 5 µL vancomycin (20 mg/kg), OSd, OSe and OSf.
# [3] = test system: E. coli; type: cell-based, Escherichia coli; details: 24 h
# Description: (§3) The minimal inhibitory concentrations (MICs) and minimum bactericidal concentrations (MBCs) were evaluated to determine the antimicrobial activity of synthetic peptides. The microorganisms employed in the study are two kinds of Gram-negative bacteria, Escherichia coli (NCTC 10418) and Pseudomonas aeruginosa (ATCC 27853), three kinds of Gram-positive bacteria, Staphylococcus aureus (NCTC 10788), Methicillin-resistant Staphylococcus aureus (MRSA, ATCC 12493) and Enterococcus faecalis (NCTC 12697) and a yeast, Candida albicans (NCPF 1467), as indicated previously. For antimicrobial assays, 5 × 10^5 CFU/mL of bacterial suspensions were incubated with the concentrations of the peptides (ranging from 1 µM to 512 µM) for 24 h at 37 °C. The sterilised broth medium was used as the positive control and the microorganism cultured in the medium only was treated as the negative control. […] The MBC results were defined as the lowest bactericidal concentrations of peptide. The antimicrobial activity of peptides was tested by monitoring the absorbance at 550 nm using an ELISA plate reader (Biolise BioTek EL808, Winooski, VT, USA).
# (§4) The activity of peptides in the different environmental conditions including different concentrations of NaCl (50, 100 and 150 mM) and MgCl2 (0.5, 1 and 2 mM), pH (6, 7 and 8), temperature (50 °C, 75 °C and 100 °C) and 10% fetal bovine serum (FBS) solution, was evaluated using the broth microdilution assay as described in the antimicrobial activity assay. For the stability test of peptides in the presence of salt, pH and serum, these conditions were adjusted in the fresh medium that was further used to dilute the bacteria suspension. The peptides were also dissolved in such broth and mixed with the bacteria suspension in the 96 well plate. For the thermal stability test, the peptides were dissolved in the water and incubated at different temperature for 15 min before dosing in the plate. The sterilised broth with corresponding conditions was used as the positive controls, and the bacteria suspension without any treatment was used as the negative controls.
# [4] = test system: E. faecalis (NCTC 12697) biofilm; type: cell-based, Enterococcus faecalis; details: for MBIC50 / MBIC90: NCTC 12697, 24 h
# Description: as §1, §2
# [5] = test system: C. albicans; type: cell-based, Candida albicans; details: 24 h
# Description: as §3, §4
# [6] = test system: MRSA; type: cell-based, Staphylococcus aureus; details: 24 h
# Description: as §3, §4
# [7] = test system: S. aureus; type: cell-based, Staphylococcus aureus; details: 24 h
# Description: as §3, §4
# [8] = test system: P. aeruginosa (ATCC 27853) biofilm; type: cell-based, Pseudomonas aeruginosa; details: for MBIC50 / MBIC90: ATCC 27853, 24 h
# Description: as §1, §2
# [9] = test system: E. faecalis; type: cell-based, Enterococcus faecalis; details: 24 h
# Description: as §3, §4
SMILES,MBEC50 [1],MBEC90 [1],MBIC50 [1],MBIC90 [1],toxicity to larvae without MRSA infection [2],MIC ([3]; pH 6),MIC ([3]; pH 7),MIC ([3]; pH 8),MBEC50 [4],MBEC90 [4],MBIC50 [4],MBIC90 [4],MIC ([5]; pH 6),MIC ([5]; pH 7),MIC ([5]; pH 8),MIC ([6]; pH 6),MIC ([6]; pH 7),MIC ([6]; pH 8),MIC ([7]; pH 6),MIC ([7]; pH 7),also measured
CC(C)C[C@H](NC(=O)[C@H](C)NC(=O)[C@H](Cc1c[nH]c2ccccc12)NC(=O)[C@H](CCCCN)NC(=O)[C@H](CC(C)C)NC(=O)[C@@H](N)Cc1ccccc1)C(=O)N[C@@H](CCCCN)C(=O)N[C@H](C(=O)N[C@@H](C)C(=O)N[C@@H](C)C(=O)N[C@@H](CCCCN)C(N)=O)C(C)C [OSd] (H-FLKWALKVAAK-NH2),> 512 µM,> 512 µM,64 µM,128 µM,No noticeable cytotoxicity,64 µM,64 µM,64 µM,128 µM,256 µM,64 µM,128 µM,64 µM,32 µM,32 µM,256 µM,128 µM,64 µM,64 µM,32 µM,MIC ([7]; pH 8): 32 µM; MBEC50 [8]: > 512 µM; MBEC90 [8]: > 512 µM; MBIC50 [8]: 128 µM; MBIC90 [8]: 256 µM; MIC ([9]; pH 6): 256 µM; MIC ([9]; pH 7): 128 µM; MIC ([9]; pH 8): 128 µM
CC(C)C[C@H](NC(=O)[C@H](C)NC(=O)[C@H](Cc1c[nH]c2ccccc12)NC(=O)[C@H](CCCCN)NC(=O)[C@H](CC(C)C)NC(=O)[C@@H](N)Cc1ccccc1)C(=O)N[C@@H](CCCCN)C(=O)N[C@@H](Cc1c[nH]c2ccccc12)C(=O)N[C@@H](C)C(=O)N[C@@H](C)C(=O)N[C@@H](CCCCN)C(N)=O [OSe] (H-FLKWALKWAAK-NH2),> 512 µM,> 512 µM,16 µM,32 µM,No noticeable cytotoxicity,32 µM,16 µM,16 µM,128 µM,128 µM,64 µM,64 µM,16 µM,8 µM,4 µM,64 µM,16 µM,8 µM,16 µM,8 µM,MIC ([7]; pH 8): 4 µM; MBEC50 [8]: > 512 µM; MBEC90 [8]: > 512 µM; MBIC50 [8]: 64 µM; MBIC90 [8]: 128 µM; MIC ([9]; pH 6): 32 µM; MIC ([9]; pH 7): 64 µM; MIC ([9]; pH 8): 32 µM
CC(C)C[C@H](NC(=O)[C@H](C)NC(=O)[C@H](Cc1c[nH]c2ccccc12)NC(=O)[C@H](CCCCN)NC(=O)[C@@H]1CCCN1C(=O)[C@H](CC(C)C)NC(=O)[C@@H](N)Cc1ccccc1)C(=O)N[C@@H](CCCCN)C(=O)N[C@@H](Cc1c[nH]c2ccccc12)C(=O)N[C@@H](C)C(=O)N[C@@H](C)C(=O)N[C@@H](CCCCN)C(N)=O [OSf] (H-FLPKWALKWAAK-NH2; N-terminus assumed),> 512 µM,> 512 µM,32 µM,128 µM,No noticeable cytotoxicity,128 µM,8 µM,32 µM,128 µM,256 µM,32 µM,64 µM,128 µM,8 µM,16 µM,512 µM,16 µM,32 µM,128 µM,8 µM,MIC ([7]; pH 8): 16 µM; MBEC50 [8]: > 512 µM; MBEC90 [8]: > 512 µM; MBIC50 [8]: 64 µM; MBIC90 [8]: 256 µM; MIC ([9]; pH 6): 512 µM; MIC ([9]; pH 7): 32 µM; MIC ([9]; pH 8): 128 µM

# Reference: publication PMC7472354, “Enhanced Antimicrobial Activity of N-Terminal Derivatives of a Novel Brevinin-1 Peptide from The Skin Secretion of Odorrana schmackeri” (Toxins, 2020)
